Laboratory results reported in PubChem BioAssay (NCI).
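Tested at 5 concentrations; 48 h exposure; 96-well plates; endpoints linearly interpolated, else capped at highest concentration. TGI marks complete inhibition of growth.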

Experiments:
Test in all cases: NCI-60 cell line screen, 48 h
[1] = test system: 786-0 renal
[2] = test system: A498 renal
[3] = test system: A549 NSCLC
[4] = test system: ACHN renal
[5] = test system: CAKI-1 renal
[6] = test system: CCRF-CEM leukemia
[7] = test system: COLO 205 colon
[8] = test system: DLD-1 colon
[9] = test system: DMS 114 small cell lung
[10] = test system: DMS 273 small cell lung
[11] = test system: EKVX NSCLC
[12] = test system: HCC-2998 colon
[13] = test system: HCT-116 colon
[14] = test system: HCT-15 colon
[15] = test system: HL-60(TB) leukemia
[16] = test system: HOP-18 NSCLC
[17] = test system: HOP-62 NSCLC
[18] = test system: HOP-92 NSCLC
[19] = test system: HT29 colon
[20] = test system: IGROV1 ovarian
[21] = test system: K-562 leukemia
[22] = test system: KM12 colon
[23] = test system: KM20L2 colon
[24] = test system: LOX IMVI melanoma
[25] = test system: LXFL 529 NSCLC
[26] = test system: M14 melanoma
[27] = test system: M19-MEL melanoma
[28] = test system: MALME-3M melanoma
[29] = test system: MOLT-4 leukemia
[30] = test system: NCI-H226 lung
[31] = test system: NCI-H23 lung
[32] = test system: NCI-H460 lung
[33] = test system: NCI-H522 lung
[34] = test system: OVCAR-3 ovarian
[35] = test system: OVCAR-4 ovarian
[36] = test system: OVCAR-5 ovarian
[37] = test system: OVCAR-8 ovarian
[38] = test system: RPMI-8226 leukemia
[39] = test system: RXF 393 renal
[40] = test system: SF-268 CNS
[41] = test system: SF-295 CNS
[42] = test system: SF-539 CNS
[43] = test system: SK-MEL-2 melanoma
[44] = test system: SK-MEL-28 melanoma
[45] = test system: SK-MEL-5 melanoma
[46] = test system: SK-OV-3 ovarian
[47] = test system: SN12C renal
[48] = test system: SNB-19 CNS
[49] = test system: SNB-75 CNS
[50] = test system: SNB-78 CNS
[51] = test system: SR leukemia
[52] = test system: SW-620 colon
[53] = test system: TK-10 renal
[54] = test system: U251 CNS
[55] = test system: UACC-257 melanoma
[56] = test system: UACC-62 melanoma
[57] = test system: UO-31 renal
[58] = test system: XF 498 CNS
[59] = test system: RXF-631 renal

Measured: TGI

NC(CO)c1ccc(OCc2ccccc2)cc1 (configuration not stated)
81.5 µM: [51]
98.9 µM: [49]
98.1 µM: [18]
> 91.4 µM: [5]
not listed: [59]
> 100 µM: all other assays above

O=[N+]([O-])c1ccc(CN=C2NNS(=O)(=O)c3ccccc32)cc1
99.7 µM: [51]
not listed: [16] | [17] | [31] | [33] | [44] | [46] | [49] | [53]
> 100 µM: all other assays above

O=C1Oc2cc3c(c4cccc1c24)OCN(c1ccccc1)C3
86.2 µM: [6]
56.9 µM: [33]
63 µM: [21]
not listed: [16] | [30] | [42] | [50] | [59]
> 100 µM: all other assays above

O=C(Cc1ccccc1)N/N=C(/c1nc2ccc([N+](=O)[O-])cc2[nH]c1=O)C(O)c1ccc(C(O)/C(=N/NC(=O)Cc2ccccc2)c2nc3ccc([N+](=O)[O-])cc3[nH]c2=O)cc1 (configuration not stated)
94.6 µM: [33]
not listed: [10] | [16] | [22] | [29] | [32] | [45] | [50] | [51] | [54] | [57]
> 100 µM: all other assays above

COc1cc(C2C(C(=O)O)=C(COC(C)=O)Oc3cc4c(cc32)OCO4)cc(OC)c1OC(C)=O (configuration not stated)
not listed: [2] | [12] | [22] | [25] | [30] | [33] | [36] | [40] | [42] | [51]
> 100 µM: all other assays above

O=C(Nc1ccccc1)c1cccc([N+](=O)[O-])c1
not listed: [8] | [15] | [22] | [24] | [25] | [26] | [30] | [31] | [32] | [33] | [35] | [36] | [39] | [41] | [43] | [46] | [51] | [53] | [55] | [57] | [59]
> 100 µM: all other assays above

O=C(Cc1ccccc1)N/N=C(/c1nc2ccc([N+](=O)[O-])cc2[nH]c1=O)C(O)c1ccccc1Cl (configuration not stated)
not listed: [9] | [10] | [23] | [34] | [39] | [48] | [59]
> 100 µM: all other assays above

CCc1cccc(CC)c1NC(=O)CC1SC(N)=NC1=O (configuration not stated)
not listed: [5] | [8] | [23]
> 100 µM: all other assays above
